Results: article PMC13422867, “An orally available PfPKG inhibitor blocks Plasmodium’s infection of the liver” (PLOS Pathogens, 2026)
“And” between values parts separate entries of the source, which are not always exact repeats. Equal values may be shown once.

Tests used:
PfPKG = PfPKG (Plasmodium falciparum, UniProt Q8I719); test: PfPKG enzyme inhibition; format: biochemical; conditions: Table 7; spread in parentheses not defined
CIT = biological target: T1, CIT (Homo sapiens, UniProt O14578); test: KdElect binding affinity assay; conditions: for Kd for CIT higher compared to RUPB-61: range over RUPB-18, -34, -69; for Kd: read-out: CIT Experimental Kd
T1 construct: purchased Eurofins (DiscoverX)
Protocol: (§1) Off-target kinase inhibition was assessed using the DiscoverX scanMAX (Eurofins) panel at 1 µM compound concentration. Binding affinities of CIT, ROCK1 and ROCK2 were evaluated using the KdElect assay (Eurofins).

ROCK1 = biological target: T2, ROCK1 (Homo sapiens, UniProt Q13464); test: KdElect binding affinity assay; conditions: for Kd for ROCK1 higher compared to RUPB-61: range over RUPB-8, -18, -34 and over ROCK1 and ROCK2; for Kd: read-out: ROCK1 Experimental Kd; for ROCK1 Experimental Binding (ΔG): ∆G = -RTln(Kd), 300K
T2 construct: purchased Eurofins (DiscoverX)
Protocol: as §1

ROCK2 = biological target: T3, ROCK2 (Homo sapiens, UniProt O75116); test: KdElect binding affinity assay; conditions: for Kd for ROCK2 higher compared to RUPB-61: range over RUPB-8, -18, -34 and over ROCK1 and ROCK2; for Kd: read-out: ROCK2 Experimental Kd
T3 construct: purchased Eurofins (DiscoverX)
Protocol: as §1

P. cynomolgi hypnozoite = test: Hypnozoite formation in primary simian hepatocytes, high-content imaging; format: cell-based, Plasmodium cynomolgi
Protocol: (§2) Liver stage antimalarial activity was evaluated using sporozoites from P. falciparum (NF54 strain) and P. cynomolgi bastianellii (B strain). P. falciparum-infected Anopheles stephensi mosquitoes were reared at WRAIR, while P. cynomolgi-infected Anopheles dirus mosquitoes were obtained from the Armed Forces Research Institute of Medical Sciences (AFRIMS), Thailand. Sporozoites were isolated by dissecting salivary glands under sterile conditions, followed by gentle mechanical disruption. Freshly isolated sporozoites were immediately used for hepatocyte infection.
(§3) Primary cryopreserved hepatocytes were selected based on host-parasite compatibility: primary simian hepatocytes (lot OQB) for P. cynomolgi and human hepatocytes (lot BGW) for P. falciparum (BioIVT Inc., Baltimore, MD, USA). Cells were thawed according to the manufacturer’s protocol and seeded into 384-well collagen-coated assay plates (Greiner Bio-One, Monroe, NC, USA) using InVitroGro CP plating medium (BioIVT). Seeding densities were optimized for uniform monolayer formation, and hepatocytes were allowed to adhere for 24–48 hours before infection. Sporozoites were added at a 1:1.1 hepatocyte-to-sporozoite ratio within 48 hours post-seeding. Automated robotic systems were used for media changes and compound additions to ensure assay consistency and minimize variability associated with manual pipetting.
(§4) Test compounds (PfPKG inhibitors) and assay drug controls (KDU-691 and tafenoquine) were solubilized in DMSO or PBS and serially diluted into 8- or 12-point, 2- or 3-fold series, achieving final assay concentrations ranging from 20 µM to 0.019 µM. Compounds were introduced using a calibrated pin tool controlled by robotic arms (V&P Scientific), ensuring a 1:1000 dilution into assay wells. Media were replenished daily with fresh drug-containing HCM. […]
(§5) Cells were fixed using 4% paraformaldehyde for 20 minutes at room temperature, followed by three PBS washes, and stored at 4°C until further processing. Parasite detection was performed using species-specific primary antibodies, with P. cynomolgi parasites labeled using a mouse monoclonal anti-Plasmodium GAPDH antibody (1.6 μg/mL, European Malaria Reagent Repository) and P. falciparum parasites detected using a rabbit polyclonal anti-PfHSP70 antibody (1:70 dilution, LS Bio, USA). […]
(§6) High-content imaging was performed using the Operetta CLS system (Revvity) and image analysis was performed with Harmony software version 4.9 (Revvity, Waltham, MA, USA). Images were acquired at 10x or 20x magnification using DAPI and TRITC fluorescence channels. Following the established protocol, parasites were classified as hypnozoites or schizonts based on fluorescence intensity (mean and maximum), morphological features (cell roundness and size), and segmentation criteria. […]

P. cynomolgi schizont = test: Schizont formation in primary simian hepatocytes, high-content imaging; format: cell-based, Plasmodium cynomolgi
Protocol: as §2, §3, §4, §5, §6

[1] = test system: primary simian hepatocytes; test: Cellular cytotoxicity, hepatocyte nuclear counts; format: cell-based
Description: as §3
Test compounds (PfPKG inhibitors) and assay drug controls (KDU-691 and tafenoquine) were solubilized in DMSO or PBS and serially diluted into 8- or 12-point, 2- or 3-fold series, achieving final assay concentrations ranging from 20 µM to 0.019 µM. Compounds were introduced using a calibrated pin tool controlled by robotic arms (V&P Scientific), ensuring a 1:1000 dilution into assay wells. Media were replenished daily with fresh drug-containing HCM. Compounds were added 1-hour post-infection (p.i.) (day 0) and administered daily for 3 days. Cells were fixed on day 6 p.i. of P. falciparum culture and day 8 for P. cynomolgi infected culture, coinciding with liver stage schizont maturation.
High-content imaging was performed using the Operetta CLS system (Revvity) and image analysis was performed with Harmony software version 4.9 (Revvity, Waltham, MA, USA). Images were acquired at 10x or 20x magnification using DAPI and TRITC fluorescence channels. Following the established protocol, parasites were classified as hypnozoites or schizonts based on fluorescence intensity (mean and maximum), morphological features (cell roundness and size), and segmentation criteria. Hepatocyte nuclei were identified using Hoechst 33342 staining. Background signal was captured in uninfected, stained wells and subjected to the same parasite detection algorithm. Estimate erroneous parasite counts were then subtracted from infected well counts. Hepatocyte viability was determined by quantifying nuclear counts per well using Hoechst stain intensity thresholds. […] An in-house built Python-based image analysis script identified parasite objects using predefined fluorescence intensity thresholds. […] Parasite size was quantified by calculating the average object area (µm²) of validated parasite structures per well. […] Dose-response inhibition and IC50 were calculated relative to in-plate negative controls (DMSO-treated wells). […]

[2] = test system: P. berghei sporozoites (PbLuc-GFP); test: In vivo chemoprotective efficacy against sporozoite liver infection; design: species or system Plasmodium berghei in mice
Protocol: In the first experiment, mice were administered three doses, intravenously (IV) or orally (PO), of compound (10 mg/kg) - two prior to sporozoite inoculation to block sporozoite invasion of hepatocytes and the third at 36 hpi to prevent egress of liver stages (Fig 3A). In vivo bioluminescent imaging (IVIS) of mice was utilized to detect and quantify relative parasitemia in the liver and flow cytometry was used to detect the appearance of blood stage parasites. Vehicle-treated mice were used as a negative control.
In vivo chemoprotective efficacy was evaluated using luciferase-expressing P. berghei ANKA sporozoites. […] Liver stage parasite burden was measured 42–48 h p.i. by bioluminescence imaging (IVIS Spectrum). Photon flux from the liver region was quantified using Living Image software. All animal procedures were approved by the Rutgers Institutional Animal Care and Use Committee (IACUC).

[3] = test system: P. berghei sporozoites (PbLuc-GFP); test: as above; design: species or system Plasmodium berghei in mice; conditions: Intravenous, 10 mg/kg x 3
P. falciparum 3D7 = test: Asexual blood stage growth inhibition, SYBR Green I, 72 h; format: cell-based; conditions: Plasmodium falciparum, mean (standard error) of 3 biological replicates
Protocol: (§7) Asexual blood stage P. falciparum strains, including 3D7 and drug-resistant field isolates, were cultured using standard conditions in RPMI 1640 with 0.5% Albumax as described previously. EC₅₀ values were determined using a SYBR Green I fluorescence assay after 72 h of compound exposure. EC50 values were derived by nonlinear regression in GraphPad Prism version 10.

P. falciparum 7G8 = test: as above; format: cell-based; conditions: Plasmodium falciparum, mean (standard error) of 3 biological replicates
Protocol: as §7

P. falciparum Dd2-B2 = test: as above; format: cell-based; conditions: Plasmodium falciparum, mean (standard error) of 3 biological replicates
Protocol: as §7

P. falciparum K1 = test: as above; format: cell-based; conditions: Plasmodium falciparum, mean (standard error) of 3 biological replicates
Protocol: as §7

P. falciparum TM90_C2B = test: as above; format: cell-based; conditions: Plasmodium falciparum, mean (standard error) of 3 biological replicates
Protocol: as §7

[4] = test system: P. falciparum CamWT and CamC580Y; conditions: ring-stage assays; cited from earlier work

T3 sequence (O75116 whole entry): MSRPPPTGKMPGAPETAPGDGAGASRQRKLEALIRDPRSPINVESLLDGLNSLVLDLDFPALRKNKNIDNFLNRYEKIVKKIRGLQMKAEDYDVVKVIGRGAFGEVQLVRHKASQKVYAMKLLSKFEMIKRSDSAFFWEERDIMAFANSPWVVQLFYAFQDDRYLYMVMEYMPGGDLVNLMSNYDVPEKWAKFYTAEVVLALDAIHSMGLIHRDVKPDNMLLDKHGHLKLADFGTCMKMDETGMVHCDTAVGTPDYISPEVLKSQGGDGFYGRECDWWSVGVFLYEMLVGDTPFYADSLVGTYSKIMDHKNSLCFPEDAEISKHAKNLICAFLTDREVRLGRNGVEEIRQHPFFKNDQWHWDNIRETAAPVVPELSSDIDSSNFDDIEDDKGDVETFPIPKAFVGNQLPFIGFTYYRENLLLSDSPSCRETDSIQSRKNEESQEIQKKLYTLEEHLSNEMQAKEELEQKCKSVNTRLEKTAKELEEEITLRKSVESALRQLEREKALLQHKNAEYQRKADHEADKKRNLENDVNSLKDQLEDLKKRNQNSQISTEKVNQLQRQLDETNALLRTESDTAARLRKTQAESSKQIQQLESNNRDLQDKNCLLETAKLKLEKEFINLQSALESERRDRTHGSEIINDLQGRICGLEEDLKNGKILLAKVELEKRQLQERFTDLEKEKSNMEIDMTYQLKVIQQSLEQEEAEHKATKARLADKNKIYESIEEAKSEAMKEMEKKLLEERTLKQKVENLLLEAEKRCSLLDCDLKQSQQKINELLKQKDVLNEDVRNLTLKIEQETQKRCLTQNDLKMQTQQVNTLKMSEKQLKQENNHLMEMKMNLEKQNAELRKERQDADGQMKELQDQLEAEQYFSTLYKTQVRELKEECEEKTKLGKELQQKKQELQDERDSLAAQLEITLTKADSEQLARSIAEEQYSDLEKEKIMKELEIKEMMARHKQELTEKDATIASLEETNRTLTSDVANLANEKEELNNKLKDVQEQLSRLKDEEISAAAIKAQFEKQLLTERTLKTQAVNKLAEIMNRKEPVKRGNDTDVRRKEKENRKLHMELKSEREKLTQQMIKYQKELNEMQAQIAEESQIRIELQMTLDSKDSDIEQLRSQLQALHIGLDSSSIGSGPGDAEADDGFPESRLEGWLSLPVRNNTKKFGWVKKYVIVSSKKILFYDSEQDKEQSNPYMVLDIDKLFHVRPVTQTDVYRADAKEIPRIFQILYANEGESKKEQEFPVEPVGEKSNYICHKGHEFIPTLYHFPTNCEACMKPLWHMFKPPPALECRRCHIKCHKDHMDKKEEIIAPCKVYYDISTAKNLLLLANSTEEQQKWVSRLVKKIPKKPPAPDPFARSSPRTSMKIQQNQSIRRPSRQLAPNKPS
T2 sequence (Q13464 whole entry): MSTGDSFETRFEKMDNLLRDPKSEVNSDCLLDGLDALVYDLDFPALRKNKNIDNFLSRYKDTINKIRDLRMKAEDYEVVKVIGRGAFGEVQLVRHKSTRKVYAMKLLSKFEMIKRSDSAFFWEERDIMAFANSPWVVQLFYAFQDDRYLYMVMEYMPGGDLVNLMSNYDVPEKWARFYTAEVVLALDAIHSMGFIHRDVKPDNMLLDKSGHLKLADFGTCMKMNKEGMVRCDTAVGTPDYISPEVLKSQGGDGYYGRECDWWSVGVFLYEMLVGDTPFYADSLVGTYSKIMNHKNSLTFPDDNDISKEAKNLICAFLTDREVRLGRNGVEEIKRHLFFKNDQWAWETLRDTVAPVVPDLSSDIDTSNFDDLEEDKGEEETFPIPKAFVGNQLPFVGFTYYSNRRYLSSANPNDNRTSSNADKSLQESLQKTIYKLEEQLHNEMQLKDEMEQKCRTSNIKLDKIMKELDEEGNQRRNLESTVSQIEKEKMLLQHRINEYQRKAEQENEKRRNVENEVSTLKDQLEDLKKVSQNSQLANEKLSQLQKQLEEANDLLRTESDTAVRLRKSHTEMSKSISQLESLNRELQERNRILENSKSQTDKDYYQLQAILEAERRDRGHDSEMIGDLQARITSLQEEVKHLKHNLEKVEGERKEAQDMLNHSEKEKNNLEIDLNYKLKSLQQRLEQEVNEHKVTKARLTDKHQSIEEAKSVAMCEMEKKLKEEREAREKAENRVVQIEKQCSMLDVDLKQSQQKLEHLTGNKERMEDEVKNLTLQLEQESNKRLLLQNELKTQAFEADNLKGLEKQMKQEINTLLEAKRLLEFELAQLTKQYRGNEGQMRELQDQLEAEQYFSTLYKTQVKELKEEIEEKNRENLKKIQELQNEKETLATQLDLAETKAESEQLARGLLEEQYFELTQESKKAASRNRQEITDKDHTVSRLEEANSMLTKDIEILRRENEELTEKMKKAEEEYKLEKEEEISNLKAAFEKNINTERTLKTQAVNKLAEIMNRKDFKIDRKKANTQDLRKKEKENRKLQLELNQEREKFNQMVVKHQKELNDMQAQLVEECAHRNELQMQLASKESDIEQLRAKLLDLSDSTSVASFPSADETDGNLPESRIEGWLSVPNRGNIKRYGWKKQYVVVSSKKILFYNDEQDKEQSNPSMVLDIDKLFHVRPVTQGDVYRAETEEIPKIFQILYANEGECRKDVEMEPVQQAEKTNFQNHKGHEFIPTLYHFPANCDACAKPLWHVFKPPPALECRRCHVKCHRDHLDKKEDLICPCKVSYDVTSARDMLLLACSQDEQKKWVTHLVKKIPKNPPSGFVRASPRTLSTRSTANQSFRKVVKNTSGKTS
T1 sequence (O14578 whole entry): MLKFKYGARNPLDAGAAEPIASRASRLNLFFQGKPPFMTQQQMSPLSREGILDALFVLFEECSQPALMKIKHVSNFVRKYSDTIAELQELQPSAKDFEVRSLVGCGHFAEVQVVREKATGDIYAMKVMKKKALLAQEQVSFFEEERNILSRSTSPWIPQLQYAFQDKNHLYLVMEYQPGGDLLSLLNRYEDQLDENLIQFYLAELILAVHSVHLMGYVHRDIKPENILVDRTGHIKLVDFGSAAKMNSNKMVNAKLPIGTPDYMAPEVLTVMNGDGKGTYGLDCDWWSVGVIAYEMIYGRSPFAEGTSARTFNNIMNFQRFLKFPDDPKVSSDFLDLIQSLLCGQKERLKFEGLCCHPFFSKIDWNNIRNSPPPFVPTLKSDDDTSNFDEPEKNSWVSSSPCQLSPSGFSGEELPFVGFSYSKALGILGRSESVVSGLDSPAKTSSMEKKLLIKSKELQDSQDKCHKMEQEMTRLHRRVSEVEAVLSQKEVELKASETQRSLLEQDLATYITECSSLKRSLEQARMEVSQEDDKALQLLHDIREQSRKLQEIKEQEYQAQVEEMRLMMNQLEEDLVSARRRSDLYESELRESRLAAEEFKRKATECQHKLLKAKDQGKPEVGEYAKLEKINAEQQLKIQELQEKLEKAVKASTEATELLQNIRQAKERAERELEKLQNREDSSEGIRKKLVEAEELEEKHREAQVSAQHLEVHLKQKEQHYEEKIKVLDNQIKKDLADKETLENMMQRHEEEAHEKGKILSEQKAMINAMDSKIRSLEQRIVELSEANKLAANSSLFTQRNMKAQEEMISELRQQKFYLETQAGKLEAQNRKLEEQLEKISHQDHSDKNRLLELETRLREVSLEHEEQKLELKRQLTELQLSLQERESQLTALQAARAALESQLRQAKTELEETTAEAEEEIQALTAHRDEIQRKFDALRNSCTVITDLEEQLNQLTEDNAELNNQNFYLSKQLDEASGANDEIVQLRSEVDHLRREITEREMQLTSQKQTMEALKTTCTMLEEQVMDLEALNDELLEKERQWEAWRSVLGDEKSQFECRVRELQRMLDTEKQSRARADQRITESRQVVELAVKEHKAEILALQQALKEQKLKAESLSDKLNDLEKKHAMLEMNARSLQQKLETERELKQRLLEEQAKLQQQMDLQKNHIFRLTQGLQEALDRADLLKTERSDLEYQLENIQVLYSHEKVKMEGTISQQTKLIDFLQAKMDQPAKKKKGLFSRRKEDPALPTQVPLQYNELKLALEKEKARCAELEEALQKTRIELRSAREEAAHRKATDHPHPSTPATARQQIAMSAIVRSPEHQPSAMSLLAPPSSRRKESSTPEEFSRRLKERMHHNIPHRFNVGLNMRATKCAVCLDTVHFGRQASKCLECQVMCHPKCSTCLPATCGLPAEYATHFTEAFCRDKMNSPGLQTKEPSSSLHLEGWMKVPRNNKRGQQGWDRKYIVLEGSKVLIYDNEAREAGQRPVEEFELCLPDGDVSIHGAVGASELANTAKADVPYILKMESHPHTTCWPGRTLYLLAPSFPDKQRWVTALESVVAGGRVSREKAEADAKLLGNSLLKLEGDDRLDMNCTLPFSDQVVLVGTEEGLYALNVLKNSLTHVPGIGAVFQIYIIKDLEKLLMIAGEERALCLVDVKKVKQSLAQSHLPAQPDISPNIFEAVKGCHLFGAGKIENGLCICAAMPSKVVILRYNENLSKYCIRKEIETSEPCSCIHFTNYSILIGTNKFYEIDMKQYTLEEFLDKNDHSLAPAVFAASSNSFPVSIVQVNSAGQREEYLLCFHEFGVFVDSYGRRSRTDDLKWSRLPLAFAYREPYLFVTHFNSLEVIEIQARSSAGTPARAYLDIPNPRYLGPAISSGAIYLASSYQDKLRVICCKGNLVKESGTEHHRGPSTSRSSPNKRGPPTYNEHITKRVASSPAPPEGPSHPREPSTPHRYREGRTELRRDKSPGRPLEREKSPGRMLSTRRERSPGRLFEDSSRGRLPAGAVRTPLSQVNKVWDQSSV

Kd (CIT) [nM]	Kd for ROCK1 higher compared to RUPB-61 (ROCK1)	Kd (ROCK1) [nM]	ROCK1 Experimental Binding (ΔG) (ROCK1) [kcal/mol]	Kd for ROCK2 higher compared to RUPB-61 (ROCK2)	Kd (ROCK2) [nM]	Structure (SMILES)	also measured
–	–	–	–	–	–	COC(=O)c1cc(-c2[nH]c(C3CCN(C)CC3)cc2-c2ccncc2)ccc1F [RUPB-72, Methyl 2-fluoro-5-(5-(1-methylpiperidin-4-yl)-3-(pyridin-4-yl)-1H-pyrrol-2-yl)benzoate]	IC50 (PfPKG): 17.2 nM
25	40–700 fold	700	-8.4	40–700 fold	560	CN1CCC(c2[nH]c(-c3ccc(F)cc3)c(-c3ccncc3)c2C#N)CC1 [RUPB-18]	Kd for CIT higher compared to RUPB-61 (CIT): 5–125 fold
–	–	–	–	–	–	CN1CCC(c2cc(-c3ccncc3)c(-c3ccc(F)cc3)[nH]2)CC1 [TSP, reference compound]	IC50 (P. cynomolgi hypnozoite): 400 nM; IC50 (P. cynomolgi schizont): 320 nM; CC50 [1]: 8.5 µM; mice that did not show blood stage parasites for 3 weeks pi ([2]; 3 intravenous doses, 10 mg/kg): 2/5; mice displaying liver infection at 44 hpi ([2]; IV, 10 mg/kg x 3, bioluminescent imaging): 3/5; Prepatent period mean ± sd ([2]; Intravenous, 10 mg/kg x 3, blood stages by flow cytometry, 10 mg/kg): 4.3 days and 4.3 ± 1.1 days; No. of mice patent by D21/ No. of mice inoculated [3]: 3/5
–	–	–	–	–	–	CCC(O)(CC)c1cc(-c2[nH]c(C3CCN(C)CC3)cc2-c2ccncc2)ccc1F [RUPB-73, 3-(2-Fluoro-5-(5-(1-methylpiperidin-4-yl)-3-(pyridin-4-yl)-1H-pyrrol-2-yl)phenyl)pentan-3-ol]	IC50 (PfPKG): 256 nM
12	40–700 fold	780	-8.4	40–700 fold	1100	CN1CCC(c2cc(-c3ccncc3C#N)c(-c3ccc(F)cc3)[nH]2)CC1 [RUPB-8]	–
620	40–700 fold	9200	-6.9	40–700 fold	6400	COc1ccc(-c2[nH]c(C3CCN(C)CC3)cc2-c2ccncc2)cc1 [RUPB-34]	Kd for CIT higher compared to RUPB-61 (CIT): 5–125 fold
–	–	–	–	–	–	C[C@H]1CN(C)CC[C@H]1c1cc(-c2ccncc2)c(-c2ccc(F)cc2)[nH]1.Cl.Cl [RUPB-58, 4-{5-[(3R,4R)-1,3-Dimethylpiperidin-4-yl]-2-(4-fluorophenyl)-1H-pyrrol-3-yl}pyridine Dihydrochloride]	IC50 (P. falciparum 3D7): 170 nM; IC50 (P. falciparum 7G8): 57 nM; IC50 (P. falciparum Dd2-B2): 467 nM; IC50 (P. falciparum K1): 239 nM; IC50 (P. falciparum TM90_C2B): 122 nM; IC50 against DHA-sensitive CamWT compared with DHA-resistant CamC580Y [4]: similar
